Assay results published in the NIST ThermoML archive (doi:10.1021/je049824c).

Tests used:
[1] = Liquid, Closed cell (Static) method
[2] = excess molar enthalpy (molar enthalpy of mixing); xn = mol fraction of the nth substance listed; settings: 14100 kPa, Liquid, Flow calorimetry

COC(=O)C(C)O (stereo not drawn) [methyl 2-hydroxypropanoate]
[1]
Settings | vapor or sublimation pressure [kPa]
283.15 K | 0.17
293.15 K | 0.43
303.15 K | 0.87

COC(=O)C(C)O (stereo not drawn) [methyl 2-hydroxypropanoate] + O
excess molar enthalpy [kJ/mol], [2]
Settings | 303.15 K | 333.15 K
x2 = 0.0632 | 0.0167 | -0.0165
x2 = 0.1202 | 0.0149 | -0.0388
x2 = 0.219 | -0.00183 | -0.0884
x2 = 0.3016 | -0.0193 | -0.12
x2 = 0.3718 | -0.0362 | -0.144
x2 = 0.4321 | -0.056 | -0.167
x2 = 0.5083 | -0.0926 | -0.201
x2 = 0.5711 | -0.123 | -0.231
x2 = 0.6397 | -0.161 | -0.269
x2 = 0.7195 | -0.206 | -0.316
x2 = 0.7803 | -0.239 | -0.351
x2 = 0.8419 | -0.269 | -0.377
x2 = 0.8988 | -0.271 | -0.373
x2 = 0.9411 | -0.231 | -0.321
x2 = 0.9796 | -0.12 | -0.165
